Laboratory results: patent US20230322722A1, “MODULATORS OF MYC FAMILY PROTO-ONCOGENE PROTEIN” (Nalo Therapeutics, priority 2020, published 2023)

Tests used:
Assay type in all cases: cell-based
MycN protein = target: T1, MycN protein (Homo sapiens, UniProt P04198); assay: Degradation of MycN protein, Western blot, SKNBE2 cells (Example 160)
T1 construct: either 2×10^6 of L-363 (human leukemia cell line) or SKNBE2 (neuroblastoma cell line) cells; endogenous in cells; host or cells: SKNBE2 / SK-N-BE(2) neuroblastoma cells
T1 sequence (P04198 1-464): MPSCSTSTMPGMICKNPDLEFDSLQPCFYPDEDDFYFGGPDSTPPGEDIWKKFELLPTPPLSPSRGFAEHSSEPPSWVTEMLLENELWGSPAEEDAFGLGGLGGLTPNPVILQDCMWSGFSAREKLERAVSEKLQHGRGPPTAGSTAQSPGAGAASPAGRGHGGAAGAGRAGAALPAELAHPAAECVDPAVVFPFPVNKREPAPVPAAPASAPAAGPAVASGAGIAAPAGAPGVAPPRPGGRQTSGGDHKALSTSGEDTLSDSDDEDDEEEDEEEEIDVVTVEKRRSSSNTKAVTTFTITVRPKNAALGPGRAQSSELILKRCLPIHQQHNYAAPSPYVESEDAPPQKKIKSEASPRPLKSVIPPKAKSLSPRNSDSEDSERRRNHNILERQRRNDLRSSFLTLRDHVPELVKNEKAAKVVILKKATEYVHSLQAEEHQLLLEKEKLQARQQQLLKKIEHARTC
Summary of the method: (§1)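 L-363 or SKNBE2 cells (passage <40, mostly <30) at 1×10^6 cells/mL in RPMI 1640/10% FBS were exposed 6 h to compound added from a 1 mM stock. RIPA lysates (25–30 ug protein) were analysed by SDS-PAGE and immunoblot with 1:500 primary antibody, with protein level quantified by band densitometry.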

MycC protein = target: T2, MycC protein (Homo sapiens, UniProt P01106); assay: Degradation of MycC protein, Western blot, L-363 cells (Example 160); details: for inhibition at 2 µM: 6 h
T2 construct: either 2×10^6 of L-363 (human leukemia cell line) or SKNBE2 (neuroblastoma cell line) cells; endogenous in cells; host or cells: L-363 / L363 human leukemia cells
T2 sequence (P01106 whole entry): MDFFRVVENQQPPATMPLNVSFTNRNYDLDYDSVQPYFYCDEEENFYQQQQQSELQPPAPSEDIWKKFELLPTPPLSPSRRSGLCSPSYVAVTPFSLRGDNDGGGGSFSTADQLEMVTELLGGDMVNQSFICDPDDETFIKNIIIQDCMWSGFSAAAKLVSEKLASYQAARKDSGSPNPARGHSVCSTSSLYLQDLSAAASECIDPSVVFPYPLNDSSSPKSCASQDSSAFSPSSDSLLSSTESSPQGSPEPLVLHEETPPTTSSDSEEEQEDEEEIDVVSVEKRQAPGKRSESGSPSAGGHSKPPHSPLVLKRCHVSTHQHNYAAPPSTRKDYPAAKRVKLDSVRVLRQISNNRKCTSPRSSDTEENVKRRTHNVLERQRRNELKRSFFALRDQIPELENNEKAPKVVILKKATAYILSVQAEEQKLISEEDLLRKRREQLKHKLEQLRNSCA
Summary of the method: as §1

MycN protein (n-myc) = target: T3, MycN protein (n-myc) (Homo sapiens, UniProt P04198); assay: Degradation of MycN protein, 24 h treatment, JESS Western, SK-N-BE(2) cells (Example 161); details: SKNBE2 cells
T3 construct: either 2×10^6 of L-363 (human leukemia cell line) or SKNBE2 (neuroblastoma cell line) cells; endogenous in cells; host or cells: SKNBE2 / SK-N-BE(2) neuroblastoma cells
T3 sequence (P04198 1-464): T1 sequence (P04198 1-464)

MycC protein (c-myc) = target: T4, MycC protein (c-myc) (Homo sapiens, UniProt P01106); assay: Degradation of MycC protein, 24 h treatment, JESS Western, L363 cells (Example 161); details: L-363 cells
T4 construct: either 2×10^6 of L-363 (human leukemia cell line) cells; endogenous in cells; host or cells: L-363 / L363 human leukemia cells
T4 sequence (P01106 whole entry): as above
Summary of the method: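 L363 suspension cells were seeded at 1E6 per well and exposed to compound, prepared as 10 mM DMSO stocks, for 24 hrs. Cells were pelleted, washed with PBS and lysed on ice in RIPA buffer, and lysate protein was measured by BCA. c-myc was detected by JESS capillary Western in the chemiluminescence channel, normalised to tubulin and GAPDH loading controls read in the NIR channel against a DMSO control.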

Compound | inhibition at 2 µM (MycN protein; SKNBE2, 6 h) | inhibition at 2 µM (MycC protein) | also measured
CN1CC2(CC(N(C)c3nccc(Nc4cc(C5CC5)[nH]n4)n3)C2)C1 [Compound 7, N4-(5-cyclopropyl-1H-pyrazol-3-yl)-N2-methyl-N2-(2-methyl-2-azaspiro[3.3]heptan-6-yl)pyrimidine-2,4-diamine] | < 20% | 20 to 49% | inhibition at 0.5 µM (MycN protein (n-myc); 0.5 μM): < 20%; inhibition at 1 µM (MycN protein (n-myc); 1 μM): < 20%; inhibition at 3 µM (MycN protein (n-myc); 3 μM): 20 to 49%; inhibition at 6 µM (MycN protein (n-myc); 6 μM): 80 to 100%; inhibition at 0.5 µM (MycC protein (c-myc); 0.5 μM): < 20%; inhibition at 1 µM (MycC protein (c-myc); 1 μM): 20 to 49%; inhibition at 3 µM (MycC protein (c-myc); 3 μM): 50 to 79%; inhibition at 6 µM (MycC protein (c-myc); 6 μM): 80 to 100%
CN(c1nccc(Nc2cc(C3CC3)[nH]n2)n1)C1CCN(CC(=O)Nc2cccc(S(C)(=O)=O)c2)CC1 [Compound 3, 2-(4-((4-((5-cyclopropyl-1H-pyrazol-3-yl)amino)pyrimidin-2-yl)(methyl)amino)piperidin-1-yl)-N-(3-(methylsulfonyl)phenyl)acetamide] | 50 to 79% | 80 to 100% | 
CN(c1nccc(Nc2cc(C3CC3)[nH]n2)n1)[C@H]1CC[C@H](NC(=O)C2CCc3ccccc32)CC1 (stereo partly drawn) [Compound 112, N-((1R,4R)-4-((4-((5-cyclopropyl-1H-pyrazol-3-yl)amino)pyrimidin-2-yl)(methyl)amino)cyclohexyl)-2,3-dihydro-1H-indene-1-carboxamide] | 50 to 79% | 80 to 100% | 
Cn1nnc(C(=O)N[C@H]2CC[C@H](N(C)c3nccc(Nc4cc(C5CC5)[nH]n4)n3)CC2)n1 [Compound 122, N-((1R,4R)-4-((4-((5-cyclopropyl-1H-pyrazol-3-yl)amino)pyrimidin-2-yl)(methyl)amino)cyclohexyl)-2-methyl-2H-tetrazole-5-carboxamide] | 50 to 79% | 80 to 100% | 
CN(c1cc(C2CCCC2)[nH]n1)c1ccnc(N(C)C2CCC(CC(=O)NC3Cc4ccc(C#N)cc4C3)CC2)n1 (stereo not drawn) [Compound 138, N-(5-cyano-2,3-dihydro-1H-inden-2-yl)-2-(4-((4-((5-cyclopentyl-1H-pyrazol-3-yl)(methyl)amino)pyrimidin-2-yl)(methyl)amino)cyclohexyl)acetamide] |  | < 20% | inhibition at 2 µM (MycN protein; 6 h): < 20%
CN(c1nccc(Nc2cc(C3CC3)[nH]n2)n1)[C@H]1CC[C@H](NC(=O)c2cccc(S(C)(=O)=O)c2)CC1 [Compound 132, N-((1R,4R)-4-((4-((5-cyclopropyl-1H-pyrazol-3-yl)amino)pyrimidin-2-yl)(methyl)amino)cyclohexyl)-3-(methylsulfonyl)benzamide] | 80 to 100% | 80 to 100% | 
CN(c1cc(C2CC2)[nH]n1)c1ccnc(N(C)[C@H]2CC[C@H](NC(=O)C3CCc4ccccc43)CC2)n1 (stereo partly drawn) [Compound 109, N-((1R,4R)-4-((4-((5-cyclopropyl-1H-pyrazol-3-yl)(methyl)amino)pyrimidin-2-yl)(methyl)amino)cyclohexyl)-2,3-dihydro-1H-indene-1-carboxamide] | < 20% | 50 to 79% | 
CN(c1cc(C2CC2)[nH]n1)c1ccnc(N(C)C2CCN(CC(=O)Nc3cccc(C(F)(F)F)c3)CC2)n1 [Compound 4, 2-(4-((4-((5-cyclopropyl-1H-pyrazol-3-yl)(methyl)amino)pyrimidin-2-yl)(methyl)amino)piperidin-1-yl)-N-(3-(trifluoromethyl)phenyl)acetamide] | < 20% | 20 to 49% | 
CN(c1cc(C2CC2)[nH]n1)c1ccnc(N(C)[C@H]2CC[C@H](NC(=O)C3Cc4ccccc4C3)CC2)n1 [Compound 110, N-((1R,4R)-4-((4-((5-cyclopropyl-1H-pyrazol-3-yl)(methyl)amino)pyrimidin-2-yl)(methyl)amino)cyclohexyl)-2,3-dihydro-1H-indene-2-carboxamide] | < 20% | 20 to 49% | 
N-((1R,4R)-4-((4-((5-cyclopropyl-1H-pyrazol-3-yl)amino)pyrimidin-2-yl)(methyl)amino)cyclohexyl)-3-methylcyclopent-3-ene-1-sulfonamide [Compound 153] |  |  | % Degradation of MycN (SKNBE2) 6 h, 2 μM (MycN protein): **** (degradation 80-100%); % Degradation of MycC (L-363) 6 h, 2 μM (MycC protein): **** (degradation 80-100%)
CN(c1nccc(Nc2cc(C3CC3)[nH]n2)n1)[C@H]1CC[C@H](NC(=O)Cc2ccnc(C#N)c2)CC1 [Compound 124, 2-(2-cyanopyridin-4-yl)-N-((1R,4R)-4-((4-((5-cyclopropyl-1H-pyrazol-3-yl)amino)pyrimidin-2-yl)(methyl)amino)cyclohexyl)acetamide] | 50 to 79% | 80 to 100% | 
CN(c1nccc(Nc2cc(C3CC3)[nH]n2)n1)[C@H]1CC[C@H](NC(=O)Cc2cccc(S(C)(=O)=O)c2)CC1 [Compound 115, N-((1R,4R)-4-((4-((5-cyclopropyl-1H-pyrazol-3-yl)amino)pyrimidin-2-yl)(methyl)amino)cyclohexyl)-2-(3-(methylsulfonyl)phenyl)acetamide] | < 20% | 50 to 79% | 
CN(c1nccc(Nc2cc(C3CC3)[nH]n2)n1)[C@H]1CC[C@H](NC(=O)c2cn(C3COC3)nn2)CC1 [Compound 149, N-((1R,4R)-4-((4-((5-cyclopropyl-1H-pyrazol-3-yl)amino)pyrimidin-2-yl)(methyl)amino)cyclohexyl)-1-(oxetan-3-yl)-1H-1,2,3-triazole-4-carboxamide] | 80 to 100% | 80 to 100% | 
CN(c1nccc(Nc2cc(C3CC3)[nH]n2)n1)[C@H]1CC[C@H](C(=O)NCC2Cc3ccccc3C2)CC1 [Compound 120, (1R,4R)-4-((4-((5-cyclopropyl-1H-pyrazol-3-yl)amino)pyrimidin-2-yl)(methyl)amino)-N-((2,3-dihydro-1H-inden-2-yl)methyl)cyclohexane-1-carboxamide] | 50 to 79% | 80 to 100% | 
CN(c1nccc(Nc2cc(C3CC3)[nH]n2)n1)[C@H]1CC[C@H](NC(=O)C2(C)CCOCC2)CC1 [Compound 116, N-((1R,4R)-4-((4-((5-cyclopropyl-1H-pyrazol-3-yl)amino)pyrimidin-2-yl)(methyl)amino)cyclohexyl)-4-methyltetrahydro-2H-pyran-4-carboxamide] | < 20% | 80 to 100% | 
CN(c1nccc(Nc2cc(C3CC3)[nH]n2)n1)[C@H]1CC[C@H](NC(=O)N2CCc3cc(F)c(F)cc3C2)CC1 [Compound 13, N-((1R,4R)-4-((4-((5-cyclopropyl-1H-pyrazol-3-yl)amino)pyrimidin-2-yl)(methyl)amino)cyclohexyl)-6,7-difluoro-3,4-dihydroisoquinoline-2(1H)-carboxamide] | 50 to 79% | 80 to 100% | 
CN(c1nccc(Nc2cc(C3CC3)[nH]n2)n1)[C@H]1CC[C@H](NC(=O)c2ccc(C#N)cn2)CC1 [Compound 137, 5-cyano-N-((1R,4R)-4-((4-((5-cyclopropyl-1H-pyrazol-3-yl)amino)pyrimidin-2-yl)(methyl)amino)cyclohexyl)picolinamide] | < 20% | 20 to 49% | 
